Columns and labels:
Aster-A = biological target: T1, Aster-A (Homo sapiens, UniProt Q96CP6); assay: Fluorescence polarisation (FP) competition with NBD-cholesterol, Aster-A; assay type: binding; settings: for Aster-A (FP) inhibition / inhibition at 10 µM: single dose, Dose = 10 µM; for IC50: mean of three experiments run in technical duplicates
T1 construct: Aster-A(359-547); GST (PreScission-cleavable) (N, cleaved yes); made in house; host or cells: E. coli OverExpress C41
T1 sequence (Q96CP6 359-547): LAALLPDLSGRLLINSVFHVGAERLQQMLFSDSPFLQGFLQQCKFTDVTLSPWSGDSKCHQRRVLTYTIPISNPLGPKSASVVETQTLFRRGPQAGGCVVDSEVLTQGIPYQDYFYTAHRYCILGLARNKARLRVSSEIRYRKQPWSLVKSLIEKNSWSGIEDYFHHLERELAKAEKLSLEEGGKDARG
Text: (§1) Protein expression constructs
(§2) Human ASTER domains of Aster-A(359-547), -B(364-552) and -C(318-504) were subcloned into a pGEX-6p-2rbs vector, thus introducing the cloning artifact ‘GPLGS’.3 The pGEX-6P-1-GST-OSBP(377- […]
(§3) a gift from James H. Hurley (University of California).4 The pHIS_2His6_Thrombin_STARD4(2-205;C75S) plasmid was a gift from Young Jun Im (Chonnam National University).5 STARD5A was a gift from Nicola Burgess-Brown (Addgene plasmid #42392; http://n2t.net/addgene:42392; […]
(§4) Protein expression and purification […]
(§5) vectors including an N-terminal PreScission-cleavable glutathione S-transferase (GST)-tag were expressed in Escherichia coli (E. coli) OverExpress C41 in Terrific Broth (TB) medium for 16 h at 18 °C after the induction with 0.1 mM isopropyl β-D-1-thiogalactopyranoside (IPTG). Cells were harvested at 3500 × g for 15 minutes and lysed by sonication in buffer containing 50 mM HEPES pH 7.5, 300 mM NaCl, 10 %v/v glycerol, 5 mM dithiothreitol (DTT), 0.1 %v/v Triton X-100 and protease inhibitor mix HP plus (Serva). The lysate was purified by affinity chromatography on a GSTrap FF column (Cytiva) using an ÄKTA Start (Cytiva) in buffer containing 50 mM HEPES pH 7.5, 300 mM NaCl, 10 %v/v glycerol, 5 mM DTT and 0.01 %v/v Triton X-100. The GST-tag was cleaved overnight on the column at 4 °C. The Aster sterol binding domains were further purified by size-exclusion chromatography (SEC) on a HiLoad 16/600 Superdex 75 pg (Cytiva) in buffer containing 20 mM HEPES pH 7.5, 300 mM NaCl, 10 %v/v […]
(§6) STARD5(6-213) harboring an N-terminal His6-Tag were expressed in E. coli BL21(DE3) in Luria-Bertani Broth (LB) medium for approximately 16 h at 18 °C after induction with 0.15 mM IPTG. Cells were harvested at 3500 × g for 15 minutes and lysed by sonication in buffer containing 50 mM HEPES pH 7.5, 150 mM NaCl, 5 %v/v glycerol, 5 mM DTT, 0.1 %v/v Triton X -100 and ethylenediaminetetraacetic acid (EDTA)-free protease inhibitor cocktail (Sigma-Aldrich). The cleared lysate was purified by affinity chromatography on a Ni-NTA Superflow Cartridge (Qiagen) using an ÄKTA Start (Cytiva) in buffer containing 50 mM HEPES pH 7.5, 150 mM NaCl, 5 %v/v glycerol, 5 mM DTT. START domains were eluted by using elution buffer containing 50 mM HEPES pH 7.5, 150 mM NaCl, 5 %v/v glycerol, 5 mM DTT and 500 mM imidazole. Proteins were further purified by SEC on a HiLoad 16/600 Superdex 75 pg (Cytiva) in buffer containing 20 mM HEPES pH 7.5, 150 mM NaCl, 5 %v/v glycerol and 2 mM DTT.
(§7) The ORP domain of human OSBP(377-807) in the pGEX-6p-1 vector with an N-terminal PreScission-cleavable GST-tag was expressed in E. coli OverExpress C41 in LB medium for 16 h at 18 °C after induction with 0.1 mM IPTG. Cells were harvested at 3500 × g for 15 minutes and lysed by sonication in buffer containing 20 mM HEPES pH 7.5, 300 mM NaCl, 10 %v/v glycerol, 5 mM DTT, 0.1 %v/v Triton X-100 and EDTA-free protease inhibitor cocktail (Sigma-Aldrich). The cleared lysate was purified by affinity chromatography on a GSTrap HF column (Cytiva) using an ÄKTA Start (Cytiva) in buffer containing 20 mM HEPES pH 7.5, 300 mM NaCl, 10 %v/v glycerol, 5 mM DTT. OSBP(377 -807) was eluted by using elution buffer containing 20 mM HEPES pH 7.5, 300 mM NaCl, 10 %v/v glycerol, 5 mM DTT and 10 mM reduced glutathione. Proteins were further purified by SEC on a HiLoad 16/600 Superdex 75 pg (Cytiva) using an ÄKTA Explorer (Cytiva) in buffer containing 20 mM HEPES pH 7.5, 150 mM NaCl, 10 %v/v glycerol and 2 mM DTT.
(§8) The ORP domains of human ORP1(534-950) in pET24b(+) and ORP2(49-480) in the pET24b(+) vector including an N-terminal His6-Tag were expressed in E. coli BL21(DE3) in TB medium for approximately 16 h at 18 °C after induction with 0.1 mM IPTG. Cells were collected at 3500 × g for 15 minutes and lysed by sonification in buffer containing 10 mM Tris-HCl pH 8, 300 mM NaCl, 5 % glycerol, 2 mM DTT, 0.1 % Triton X-100 and EDTA-free protease inhibitor cocktail (Sigma-Aldrich). The cleared […]

ORP2 = biological target: T2, ORP2 (Homo sapiens, UniProt Q9H1P3); assay: Fluorescence polarisation (FP) competition with NBD-cholesterol, ORP2; assay type: binding; settings: for ORP2 (FP) inhibition / inhibition at 10 µM: single dose, Dose = 10 µM; for IC50: mean of three experiments run in technical duplicates
T2 construct: ORP2(49-480); host or cells: E. coli BL21(DE3)
T2 sequence (Q9H1P3 49-480): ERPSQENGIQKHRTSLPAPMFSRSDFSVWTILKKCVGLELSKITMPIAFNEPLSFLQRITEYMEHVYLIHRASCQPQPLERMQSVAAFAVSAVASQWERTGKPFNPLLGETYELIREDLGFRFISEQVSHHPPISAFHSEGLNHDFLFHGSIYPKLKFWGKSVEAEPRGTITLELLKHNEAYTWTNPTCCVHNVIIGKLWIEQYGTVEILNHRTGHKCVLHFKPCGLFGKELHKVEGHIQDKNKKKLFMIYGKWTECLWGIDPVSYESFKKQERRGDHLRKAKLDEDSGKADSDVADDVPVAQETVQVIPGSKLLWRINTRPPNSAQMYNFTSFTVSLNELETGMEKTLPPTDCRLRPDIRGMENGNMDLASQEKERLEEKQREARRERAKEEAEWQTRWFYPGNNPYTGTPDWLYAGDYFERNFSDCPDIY
Text: as §1, §2, §3, §4, §5, §6, §7, §8

Structure (SMILES)	Aster-A (FP) inhibition (Aster-A) [%]	ORP2 (FP) inhibition (ORP2) [%]	inhibition at 10 µM (Aster-A) [%]	inhibition at 10 µM (ORP2) [%]	IC50 (Aster-A) [µM]	IC50 (ORP2) [µM]	Activity against Aster-A (in words) (Aster-A; FP)
C[C@]12CC[C@@H](O)C[C@H]1CCc1c2[nH]c2ccc(Cl)cc12 [Compound 10c]	1	32					
C[C@]12CC[C@@H](O)C[C@H]1CCc1c2[nH]c2ccc(F)cc12 [Compound 10d]	-8	42					
Cc1ccc2[nH]c3c(c2c1)CC[C@@H]1C[C@H](O)CC[C@]31C [Compound 10e]			-4	50.6			
COc1ccc2[nH]c3c(c2c1)CC[C@@H]1C[C@H](O)CC[C@]31C [Compound 10f]			0	36.5			
CC12CCC(O)CC1CCc1c2[nH]c2ccc(C(F)(F)F)cc12 (stereo not shown) [Compound 10g]			-8	57.7			
C[C@]12CC[C@@H](O)C[C@H]1CCc1c2[nH]c2ccc(I)cc12 [Compound 10h]	7	63.5					
C[C@]12CC[C@@H](O)C[C@H]1CCc1c2[nH]c2c(F)cc(Cl)cc12 [Compound 10i]			-8	20			
Cc1cc(C)c2c3c([nH]c2c1)[C@@]1(C)CC[C@@H](O)C[C@H]1CC3 [Compound 10j]			-2	15			
CCOC(=O)c1ccc2[nH]c3c(c2c1)CC[C@@H]1C[C@H](O)CC[C@]31C [Compound 10k]	1	11					
C[C@]12CC[C@@H](O)C[C@H]1CCC(=O)c1ccccc1NC2=O [Compound 11a]	-1	6					
C[C@]12CC[C@@H](O)C[C@H]1CCC(=O)c1cc(Br)ccc1NC2=O [Compound 11b]			1	2			
Cc1ccc2c(c1)C(=O)CC[C@@H]1C[C@H](O)CC[C@]1(C)C(=O)N2 [Compound 11c]			-4	-1			
COc1ccc2c(c1)C(=O)CC[C@@H]1C[C@H](O)CC[C@]1(C)C(=O)N2 [Compound 11d]			-1	11			
C[C@]12CC[C@@H](O)C[C@H]1CCC(=O)c1cc(C(F)(F)F)ccc1NC2=O [Compound 11e]			-2	5			
C[C@]12CC[C@@H](O)C[C@H]1CCC(=O)c1cc(Cl)cc(F)c1NC2=O [Compound 11f]	-1	7					
Cc1cc(C)c2c(c1)NC(=O)[C@@]1(C)CC[C@@H](O)C[C@H]1CCC2=O [Compound 11g]			0	-1			

Structure (SMILES)	Aster-A (FP) inhibition (Aster-A) [%]	ORP2 (FP) inhibition (ORP2) [%]	inhibition at 10 µM (Aster-A) [%]	inhibition at 10 µM (ORP2) [%]	IC50 (Aster-A) [µM]	IC50 (ORP2) [µM]	Activity against Aster-A (in words) (Aster-A; FP)
Cc1ccc2[nH]c3c(c(=O)c2c1)C[C@@H]1C[C@H](O)CC[C@]31C [Compound 12]			-1	5			
Cc1ccc2c(c1)[C@]1(O)CC[C@@H]3C[C@H](O)CC[C@]3(C)C1=N2 [Compound 14a]			3	53			
COc1ccc2c(c1)[C@]1(O)CC[C@@H]3C[C@H](O)CC[C@]3(C)C1=N2 [Compound 14b]			8	25			
Cc1cc(C)c2c(c1)N=C1[C@@]2(O)CC[C@@H]2C[C@H](O)CC[C@]12C [Compound 14c]			2	11			
C[C@]12CC[C@@H]3C[C@H]1CC[C@@]21C(=Nc2ccccc21)O3 [Compound 15a]			43	25	7.17		
CC12CCC3CC1CCC21C(=Nc2ccc(Cl)cc21)O3 (stereo not shown) [Compound 15c]			50	47	4.59	22.2	
C[C@]12CC[C@@H]3C[C@H]1CC[C@@]21C(=Nc2ccc(F)cc21)O3 [Compound 15d]			25	25	12.5		
Cc1ccc2c(c1)[C@@]13CC[C@@H]4C[C@@H](CC[C@@]41C)OC3=N2 [Compound 15e]			45	38	6.03		
COc1ccc2c(c1)[C@@]13CC[C@@H]4C[C@@H](CC[C@@]41C)OC3=N2 [Compound 15f]			51	73	5.06		
C[C@]12CC[C@@H]3C[C@H]1CC[C@@]21C(=Nc2ccc(C(F)(F)F)cc21)O3 [Compound 15g]			79	60	1.6	8.41	
CC12CCC3CC1CCC21C(=Nc2c(Br)cc(C(F)(F)F)cc21)O3 (stereo not shown) [Compound 15h]			2	49	> 80	9.6	inactive against Aster-A
C[C@]12CC[C@@H]3C[C@H]1CC[C@@]21C(=Nc2c(F)cc(Cl)cc21)O3 [Compound 15i]			46	41	3.63		
CC12CCC3CC1CCC21C(=Nc2ccc(NCc4ccccc4)cc21)O3 (stereo not shown) [Compound 19b]			4	41	13.4		
CCCCCNc1ccc2c(c1)[C@@]13CC[C@@H]4C[C@@H](CC[C@@]41C)OC3=N2 [Compound 19c]			59	38	5.03	> 80	
CCCCN(C)c1ccc2c(c1)[C@@]13CC[C@@H]4C[C@@H](CC[C@@]41C)OC3=N2 [Compound 19d]			60	51	3.89	> 80	
CC(C)(C)OC(=O)N1CCN(c2ccc3c(c2)C24CCC5CC(CCC52C)OC4=N3)CC1 (stereo not shown) [Compound 19e]			94	34	1.25		

Source: PMC11758220, “Identification of a Privileged Scaffold for Inhibition of Sterol Transport Proteins through the Synthesis and Ring Distortion of Diverse, Pseudo-Natural Products” (ACS Central Science, 2025)
